Assays:
vie aquatique = conditions: long-term effects; cited from earlier work
Planaires adultes entier = conditions: adult planarians, 12 days, checks at 7 and 12 days, 0,22 mg/L - 22 mg/L; for Concentration à partir de laquelle une mortalité significative du planaire est observée: according to Zhang et al. 2019; for Concentration à partir de laquelle sont observés des troubles du comportement potentiellement liés à des troubles cognitifs du planaire: adhérence, vitesse de déplacement, repos, phototaxie, scrunching
Protocol: La méthodologie utilisée est la suivante Tous les composés sont fournis sous forme de poudres. Un volume approprié de DMSO 100 % (Sigma) a été ajouté, comme indiqué sur les tubes, pour obtenir une solution mère à 4,4 mg/ml (soit 200 fois plus concentrée que la concentration maximale de test).

[1] = cited from earlier work

Compound | Toxicité (Informations ECHA - 2021): vie aquatique (écotoxique) (vie aquatique) | Concentration à partir de laquelle une mortalité significative du planaire est observée (Planaires adultes entier) | Concentration à partir de laquelle sont observés des troubles du comportement potentiellement liés à des troubles cognitifs du planaire (Planaires adultes entier) | Toxicité (Informations ECHA - 2021): toxicité aiguë ([1]; if swallowed) | Toxicité (Informations ECHA - 2021): dommages aux organes ([1]; prolonged or repeated exposure)
Bis(nonylphényl)amine [Irganox® L67] | Est nocif pour la vie aquatique avec des effets à long terme (écotoxique) https://echa.europa.eu/fr/substance-information/-/substanceinfo/100.048.393 Evaluation en 2021 pour suspicion de Mutagénicité et PBT |  |  |  | 
CC(C)CC(C)Nc1ccc(Nc2ccccc2)cc1 (centres unmarked) [compound 22, N-(1,3-Diméthylbutyl)-N'-phényl-p-phénylènediamine] |  | 4,8 mg/L | 1,5 mg/L |  | 
c1ccc(Nc2cccc3ccccc23)cc1 [compound 19, N-phénylnaphthalène-1-amine] | Est très toxique pour la vie aquatique avec des effets à long terme (écotoxique) | 6,9 mg/L | 2,2 -3,9 mg/L | est nocif s'il est avalé (toxicité aiguë) | peut causer des dommages aux organes par exposition prolongée ou répétée
